What all share (type): cell-based
One test deals with T1, 5‐HT3AB receptors (Homo sapiens, UniProt O95264+P46098).
T1 sequence (P46098 24-478): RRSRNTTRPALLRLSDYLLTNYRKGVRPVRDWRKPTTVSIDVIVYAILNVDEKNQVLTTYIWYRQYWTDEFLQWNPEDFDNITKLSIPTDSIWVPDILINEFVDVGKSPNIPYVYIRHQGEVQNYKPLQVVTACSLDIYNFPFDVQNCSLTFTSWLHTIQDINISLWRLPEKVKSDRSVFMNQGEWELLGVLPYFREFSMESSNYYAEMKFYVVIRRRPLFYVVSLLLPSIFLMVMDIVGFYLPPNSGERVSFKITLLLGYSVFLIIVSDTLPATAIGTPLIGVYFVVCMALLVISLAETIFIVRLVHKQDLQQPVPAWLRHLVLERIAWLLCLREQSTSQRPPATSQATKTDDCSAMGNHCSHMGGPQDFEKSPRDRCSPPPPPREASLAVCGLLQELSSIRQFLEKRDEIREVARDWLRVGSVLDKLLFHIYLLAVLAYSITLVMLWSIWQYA
T1 sequence (O95264 22-441): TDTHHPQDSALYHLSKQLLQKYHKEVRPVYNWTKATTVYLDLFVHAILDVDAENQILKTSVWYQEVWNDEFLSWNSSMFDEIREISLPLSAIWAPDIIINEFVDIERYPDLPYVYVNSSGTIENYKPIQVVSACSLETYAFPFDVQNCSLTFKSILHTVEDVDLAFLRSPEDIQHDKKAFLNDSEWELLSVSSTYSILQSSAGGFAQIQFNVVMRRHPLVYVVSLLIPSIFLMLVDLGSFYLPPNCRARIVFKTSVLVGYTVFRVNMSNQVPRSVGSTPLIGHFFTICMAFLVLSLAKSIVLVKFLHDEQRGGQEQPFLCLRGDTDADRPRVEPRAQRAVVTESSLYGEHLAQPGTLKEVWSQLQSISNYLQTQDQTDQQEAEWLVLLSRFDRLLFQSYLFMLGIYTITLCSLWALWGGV
The test can be described thus: two‐electrode voltage clamp, wild type 5‐HT3AB receptors in Xenopus oocytes.

A further test concerns the target T2, 5‐HT3A receptors (Homo sapiens, UniProt P46098).
T2 sequence (P46098 24-478): T1 sequence (P46098 24-478)
The test can be described thus: two‐electrode voltage clamp, wild type 5‐HT3A receptors in Xenopus oocytes.

The target of a further test is T3, 5‐HT3AT6'SB receptors (Homo sapiens, UniProt O95264+P46098, T279S).
T3 sequence (P46098 24-478 T279S): T1 sequence (P46098 24-478) with T256S
T3 sequence (O95264 22-441): T1 sequence (O95264 22-441)
As to the kind of experiment: two‐electrode voltage clamp, 5‐HT3AT6'SB mutant receptors in Xenopus oocytes. As to conditions: maximal current amplitude for the test ligand compared to 5‐HT.

In a further test the target is T4, 5‐HT3AT6'S receptors (Homo sapiens, UniProt P46098, T279S).
T4 sequence (P46098 24-478 T279S): T1 sequence (P46098 24-478) with T256S
The test can be described thus: two‐electrode voltage clamp, 5‐HT3AT6'S mutant receptors in Xenopus oocytes. Conditions: maximal current amplitude for the test ligand compared to 5‐HT.

Changes are numbered by the printed parent chain. Bounds are passed on as bounds.

`c1ccc2nc(N3CCNCC3)ccc2c1` [Quipazine]: the agonist response entry at 5‐HT3AB receptors and on 5‐HT3A receptors (5‐HT3A) was “too small to accurately determine functional parameters” each time. The “long‐lived inhibition of subsequent agonist responses” value on 5‐HT3A receptors (wild type 5‐HT3A and 5‐HT3AB receptors) was above 20 min. In addition, the Rmax amounted to 1.2 on 5‐HT3AT6'SB receptors and 0.9 at 5‐HT3AT6'S receptors.

Source of the values: paper PMC3834762 (British Journal of Pharmacology, 2013).
